The results in this text go back to patent US20090203877A1, “X-RAY-DENSE CONJUGATE” (Eberhard-Karls-Universitaet Tuebingen Universitaetsklinkum, priority 2006, published 2009).

In this assay the test system is human malignant U373 glioma cells. Briefly: Computer tomography, signal density of cell pellets. Type of assay: cell-based. The method, then:
For CT and FACS human U373 glioma cells were grown under the same conditions in 75 cm^2 culture flasks (Corning Costar, Bodenheim, Germany) (70% confluency). Accutase™ (PAA laboratories, Pasching, Austria) was added to achieve detachment of the cells which were harvested and subsequently aliquoted into Eppendorf tubes (6×10^6 cells per tube). As in the investigations performed by fluorescence microscopy, the cells in the first tube served as a control (PBS only). The cells in the other tubes were incubated with 260 μM Ultravist, 260 μM TIBA in PBS and 26 μM, 260 μM and 2.6 mM conjugates 1-4 in PBS. After a 20 minute incubation period at 37° C. in an atmosphere of 5% CO2, the cells were washed three times in PBS and centrifuged at 800 rpm for 5 minutes.
The inner ear spiral CT protocol consisted of: tube voltage 120 KV, effective mAs 550, time of imaging TI: 1.5, SL 0.75/0.75/4.5, FOV: 50 0/52, kernel: U70, window: intervertebral disc.
3D-images were obtained using InSpace Software (Syngo CT 2006G) (Siemens AG, Erlangen, Germany).
After an incubation of 20 minutes at 37° C./5% CO2 the cells were washed three times with PBS buffer and centrifuged at 800 rpm (rounds per minute) for 5 minutes. The fluorescence was measured in Becton Dickinson FACSCalibur as described under 1.4. The computer tomography was performed as described under 1.5.1. The examinations were repeated two times. […]
An Orbita CT spiral was used: tube voltage 120 KV, effective mAs 550, time of imaging TI: 1.5, SL 0.75/0.75/4.5, FOV: 50 0/52, GT: 0.0, kernel: U70, window: intervertebral disc. 3D images were made with the InSpace Software (Syngo CT 2006G) (Siemens AG, Erlangen, Germany). […]

For the substance “PKKKRKVK(FITC)GGK(TIBA) (FITC, GGK linker, TIBA) [conjugate 1, FITC-labelled correct NLS of the SV 40 T antigen with TIBA]”, the “CT signal density of cell pellets” value by setting is: (26 μM, 20 min) “only low signal density values”; (260 μM, 20 min) “significant increase in signal density”; (2.6 mM, 20 min) “significant increase in signal density”; (varying concentrations (26 μM, 260 μM and 2.6 mM) and PBS alone) “did result in differences in signal densities”.
